From patent US20200140489A1 (priority 2013, published 2020)
Like-named read-outs stand apart in the source and are kept apart here. Positions of bridges follow the written chain, without caps; N, C: chain ends. Non-standard residues stand in square brackets, D forms with d. Residues, ends and D or L forms follow the SMILES beside them. *: point of attachment. X1 = CC[C@@H](C)C1NC(=O)CN(CC(=O)*)C1=O; NMeI = CC[C@H](C)[C@H](NC)C(=O)O; NMeD = CN[C@@H](CC(=O)O)C(=O)O; NMeL = CN[C@@H](CC(C)C)C(=O)O; Nleu = CC(C)CNCC(=O)O; Aoc = NCCCCCCCC(=O)O; GABA = NCCCC(=O)O

Assays:
AgrC-I [1] = target: T1, AgrC-I (Staphylococcus aureus, UniProt O07911); type: cell-based, S. aureus; conditions: for IC50: read-out: AgrC-I IC50, fluorescence reporter strain; for AgrC-I % Activation: fluorescence of treated vs non-treated wild-type bacteria, lower % activation = more potent inhibition
AgrC-II [2] = target: T2, AgrC-II (Staphylococcus aureus, UniProt O33587); type: cell-based, S. aureus; conditions: for IC50: read-out: AgrC-II IC50, fluorescence reporter strain; for AgrC-II % Activation: fluorescence of treated vs non-treated wild-type bacteria, lower % activation = more potent inhibition
AgrC-III = AgrC-III (Staphylococcus aureus, UniProt O33590); type: cell-based, S. aureus; conditions: for IC50: read-out: AgrC-III IC50, fluorescence reporter strain; for AgrC-III activity: gfp/fluorescence assay; for AgrC-III % Activation: fluorescence of treated vs non-treated wild-type bacteria, lower % activation = more potent inhibition
AgrC-IV [3] = target: T3, AgrC-IV (Staphylococcus aureus, UniProt Q309Z2); type: cell-based, S. aureus; conditions: for IC50: read-out: AgrC-IV IC50; for AgrC-IV activity: gfp/fluorescence assay; for AgrC-IV % Activation: fluorescence of treated vs non-treated wild-type bacteria, lower % activation = more potent inhibition
AgrC-II [4] = target: T2, AgrC-II; experiment: Hemolysis assay, wild-type group-II strain RN6923, rabbit red blood cells; conditions: read-out: AgrC-II IC50; hemolysis assay; 200 fM − 10 μM
AgrC-I [5] = target: T1, AgrC-I; experiment: Hemolysis assay, wild-type group-I strain RN6390B, rabbit red blood cells; conditions: read-out: AgrC-I IC50; hemolysis assay; 200 fM − 10 μM
AgrC-IV [6] = target: T3, AgrC-IV; experiment: Hemolysis assay, wild-type group-IV strain RN4850, rabbit red blood cells; conditions: read-out: AgrC-IV IC50; hemolysis assay; 200 fM − 10 μM
[7] = AIPs tested over 200 fM − 10 μM or (b1) 2.5 pM − 10 μM, triplicate
[8] = fluorescence reporter strain, AIPs tested over 200 fM − 10 μM or (b1) 2.5 pM − 10 μM, triplicate
[9] = second-generation analogues, 200 fM − 10 μM
[10] = second-generation analogues, fluorescence reporter strain, 200 fM − 10 μM

T3 sequence (Q309Z2 1-430): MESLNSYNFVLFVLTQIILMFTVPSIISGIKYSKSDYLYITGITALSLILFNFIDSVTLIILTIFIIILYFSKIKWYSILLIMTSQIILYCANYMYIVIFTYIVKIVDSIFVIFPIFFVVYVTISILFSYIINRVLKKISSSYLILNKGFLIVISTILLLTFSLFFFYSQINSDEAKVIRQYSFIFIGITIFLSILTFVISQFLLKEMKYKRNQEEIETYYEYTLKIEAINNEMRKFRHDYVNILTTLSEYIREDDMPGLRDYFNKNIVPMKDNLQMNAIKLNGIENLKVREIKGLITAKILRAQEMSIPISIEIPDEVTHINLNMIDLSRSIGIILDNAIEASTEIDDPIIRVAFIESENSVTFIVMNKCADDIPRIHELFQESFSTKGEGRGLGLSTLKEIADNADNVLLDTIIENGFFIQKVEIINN
T2 sequence (O33587 1-437): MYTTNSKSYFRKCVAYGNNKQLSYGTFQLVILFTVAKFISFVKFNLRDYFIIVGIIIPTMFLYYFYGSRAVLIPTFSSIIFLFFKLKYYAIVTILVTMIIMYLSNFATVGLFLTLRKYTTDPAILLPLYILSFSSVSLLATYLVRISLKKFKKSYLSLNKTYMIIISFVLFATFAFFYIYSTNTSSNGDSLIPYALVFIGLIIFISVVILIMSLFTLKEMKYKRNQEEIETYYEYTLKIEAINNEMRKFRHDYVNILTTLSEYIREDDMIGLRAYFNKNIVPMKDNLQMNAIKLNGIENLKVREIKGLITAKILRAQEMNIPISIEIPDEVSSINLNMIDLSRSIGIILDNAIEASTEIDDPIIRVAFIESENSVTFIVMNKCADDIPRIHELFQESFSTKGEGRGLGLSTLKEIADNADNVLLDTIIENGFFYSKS
T1 sequence (O07911 1-430): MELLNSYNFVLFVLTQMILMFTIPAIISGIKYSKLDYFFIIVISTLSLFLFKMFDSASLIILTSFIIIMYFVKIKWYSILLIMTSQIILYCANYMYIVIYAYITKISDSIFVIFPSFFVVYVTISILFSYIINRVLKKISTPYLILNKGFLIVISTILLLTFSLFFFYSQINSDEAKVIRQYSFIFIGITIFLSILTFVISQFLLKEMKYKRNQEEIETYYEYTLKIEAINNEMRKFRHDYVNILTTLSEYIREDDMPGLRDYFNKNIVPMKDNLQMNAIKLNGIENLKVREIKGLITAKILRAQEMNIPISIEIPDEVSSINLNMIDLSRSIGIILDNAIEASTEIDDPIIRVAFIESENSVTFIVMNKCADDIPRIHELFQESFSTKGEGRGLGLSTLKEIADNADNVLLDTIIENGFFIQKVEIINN
Chain of AgrC-III (O33590 1-425): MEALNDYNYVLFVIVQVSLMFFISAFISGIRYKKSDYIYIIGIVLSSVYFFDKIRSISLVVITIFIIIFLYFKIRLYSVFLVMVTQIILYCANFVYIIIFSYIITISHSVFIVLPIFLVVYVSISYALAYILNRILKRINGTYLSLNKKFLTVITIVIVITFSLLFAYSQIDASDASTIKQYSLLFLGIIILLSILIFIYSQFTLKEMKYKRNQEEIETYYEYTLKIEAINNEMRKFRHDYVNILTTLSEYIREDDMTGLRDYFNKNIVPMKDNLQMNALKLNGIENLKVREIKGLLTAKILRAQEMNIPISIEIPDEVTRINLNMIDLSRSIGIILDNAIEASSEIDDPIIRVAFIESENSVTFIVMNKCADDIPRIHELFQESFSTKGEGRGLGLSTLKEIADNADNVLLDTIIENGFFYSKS

| Structure (SMILES) | IC50 (AgrC-I [1]; [7]) [nM] | IC50 (AgrC-II [2]; [7]) [nM] | IC50 (AgrC-III; [7]) [nM] | IC50 (AgrC-IV [3]; [8]) [nM] | AgrC-III activity (AgrC-III) | IC50 (AgrC-I [1]; [9]) [nM] | IC50 (AgrC-II [2]; [9]) [nM] | IC50 (AgrC-III; [9]) [nM] | IC50 (AgrC-IV [3]; [10]) [nM] | further results |
| --- | --- | --- | --- | --- | --- | --- | --- | --- | --- | --- |
| CC[C@H](C)[C@H](N)C(=O)N[C@@H](CC(N)=O)C(=O)N[C@H]1CSC(=O)[C@H](CC(C)C)NC(=O)[C@H](CC(C)C)NC(=O)[C@H](Cc2ccccc2)NC(=O)[C@H](CC(=O)O)N(C)C1=O [AIP-III N-Me-D4, I-N-(C-NMeD-F-L-L)] (H-INC[NMeD]FLL; thioester 3-C) | 172 | 7.98 | 90.2 | 36.9 |  |  |  |  |  |  |
| CC[C@H](C)[C@H](N)C(=O)N[C@@H](CC(N)=O)C(=O)N[C@H]1CSC(=O)[C@H](CC(C)C)NC(=O)[C@H](CC(C)C)N(C)C(=O)[C@H](Cc2ccccc2)NC(=O)[C@H](CC(=O)O)NC1=O [AIP-III N-Me-L6, I-N-(C-D-F-NMeL-L)] (H-INCDF[NMeL]L; thioester 3-C) | > 1000 |  | 162 | 81.6 |  |  |  |  |  | AgrC-IV activity (AgrC-IV [3]): AgrC-IV selective inhibitor |
| CC[C@@H](C)C1NC(=O)CN(CC(=O)N[C@H]2CSC(=O)[C@H](CC(C)C)NC(=O)[C@H](CC(C)C)NC(=O)[C@H](Cc3ccccc3)NC(=O)[C@H](CC(=O)O)NC2=O)C1=O (stereo partly drawn) [AIP-III nN2 DKP, (I-nN)-(C-D-F-L-L)] (X1-CDFLL; thioester 1-C) | 126 | 4.28 | 25.1 | 84.8 | AgrC-III inhibitor |  |  |  |  |  |
| CC(=O)N[C@H]1CSC(=O)[C@H](Cc2ccccc2)NC(=O)[C@H](CC(C)C)NC(=O)CCCNC1=O [n3LF] (Ac-C[GABA]LF; thioester 1-C) |  |  |  |  | global inhibitor of all four AgrC receptors |  |  |  |  | AgrC-I % Activation (AgrC-I [1]): 17 ± 7%; AgrC-I activity described in text (AgrC-I [1]; gfp/fluorescence assay): global inhibitor of all four AgrC receptors; AgrC-II % Activation (AgrC-II [2]): 28 ± 10%; AgrC-II activity described in text (AgrC-II [2]; gfp/fluorescence assay): global inhibitor of all four AgrC receptors; AgrC-III % Activation (AgrC-III): 13 ± 7%; AgrC-IV % Activation (AgrC-IV [3]): 6 ± 3%; AgrC-IV activity (AgrC-IV [3]): global inhibitor of all four AgrC receptors |
| CC[C@H](C)[C@H](NC(C)=O)C(=O)N[C@@H](CC(N)=O)C(=O)N[C@H]1CSC(=O)[C@H](CC(C)C)NC(=O)[C@H](CC(C)C)NC(=O)[C@H](Cc2ccccc2)NC(=O)[C@H](CC(=O)O)NC1=O [Ac-AIP-III, Ac-I-N-(C-D-F-L-L)] (Ac-INCDFLL; thioester 3-C) |  |  |  |  | largely inactive | > 200 | 44.3 | > 200 | > 200 |  |
| CC[C@H](C)[C@H](NC)C(=O)N[C@@H](CC(N)=O)C(=O)N[C@H]1CSC(=O)[C@H](CC(C)C)NC(=O)[C@H](CC(C)C)NC(=O)[C@H](Cc2ccccc2)NC(=O)[C@H](CC(=O)O)NC1=O [AIP-III N-Me-I1, NMeI-N-(C-D-F-L-L)] (H-[NMeI]NCDFLL; thioester 3-C) | 60.8 | 12.8 | > 1000 | 49.2 |  |  |  |  |  |  |
| CC[C@H](C)[C@H](N)C(=O)N[C@@H](CC(N)=O)C(=O)N[C@H]1CSC(=O)[C@H](CC(C)C)N(C)C(=O)[C@H](CC(C)C)NC(=O)[C@H](Cc2ccccc2)NC(=O)[C@H](CC(=O)O)NC1=O [AIP-III N-Me-L7, I-N-(C-D-F-L-NMeL)] (H-INCDFL[NMeL]; thioester 3-C) |  |  | > 1000 |  |  |  |  |  |  | AgrC-IV IC50 (AgrC-IV [3]; [8]): _h |
| CC(C)C[C@@H]1NC(=O)[C@H](Cc2ccccc2)NC(=O)[C@H](CC(=O)O)NC(=O)[C@@H](NC(=O)[C@H](C)NC(=O)[C@H](C)N)CSC(=O)[C@H](CC(C)C)NC1=O [AIP-III I1A/N2A, A-A-(C-D-F-L-L)] (H-AACDFLL; thioester 3-C) |  |  |  |  |  | 7.4 | 4.38 | 2.6 | 5.41 |  |
| CC[C@H](C)[C@H](NC(=O)[C@@H](N)Cc1ccc(O)cc1)C(=O)N[C@@H](CC(N)=O)C(=O)N[C@H]1CSC(=O)[C@H](CC(C)C)NC(=O)[C@H](CC(C)C)NC(=O)[C@H](Cc2ccccc2)NC(=O)[C@H](CC(=O)O)NC1=O [Y-AIP-III, Y-I-N-(C-D-F-L-L)] (H-YINCDFLL; thioester 4-C) |  |  |  |  | moderate antagonist | 8.92 | 3.75 | 39.2 | 78.2 |  |
| CC[C@H](C)[C@H](N)C(=O)N[C@@H](CC(N)=O)C(=O)N[C@H]1CSC(=O)[C@H](CC(C)C)NC(=O)[C@H](CC(C)C)NC(=O)[C@H](Cc2ccccc2)NC(=O)CN(CC(=O)O)C1=O [AIP-III nD4, I-N-(C-nD-F-L-L)] | 162 | 28.3 |  | 53.2 |  |  |  |  |  |  |
| CC[C@H](C)[C@H](N)C(=O)N[C@@H](CC(N)=O)C(=O)N[C@H]1CSC(=O)[C@H](CC(C)C)NC(=O)[C@H](C)NC(=O)[C@H](Cc2ccccc2)NC(=O)[C@H](CC(=O)O)NC1=O [AIP-III L6A, I-N-(C-D-F-A-L)] (H-INCDFAL; thioester 3-C) | > 200 | > 200 | > 200 | > 200 |  |  |  |  |  |  |
| CC[C@H](C)[C@H](NC(=O)[C@H](C)N)C(=O)N[C@@H](CC(N)=O)C(=O)N[C@H]1CSC(=O)[C@H](CC(C)C)NC(=O)[C@H](CC(C)C)NC(=O)[C@H](Cc2ccccc2)NC(=O)[C@H](CC(=O)O)NC1=O [A-AIP-III, A-I-N-(C-D-F-L-L)] (H-AINCDFLL; thioester 4-C) |  |  |  |  | partial agonist | 26.1 | 6.4 | 27.5 | 28.5 | AgrC-IV activity (AgrC-IV [3]): partial agonism |
| CC(=O)N[C@H]1CSC(=O)[C@H](Cc2ccccc2)NC(=O)[C@H](CC(C)C)NC(=O)CCCCCCCNC1=O [n7LF] (Ac-C[Aoc]LF; thioester 1-C) |  |  |  |  | selective group-III inhibitors |  |  |  |  | AgrC-I % Activation (AgrC-I [1]): 54 ± 34%; AgrC-II % Activation (AgrC-II [2]): 43 ± 25%; AgrC-III % Activation (AgrC-III): 7 ± 3%; AgrC-IV % Activation (AgrC-IV [3]): 98 ± 14% |
| CC[C@H](C)[C@H](NC(=O)CN)C(=O)N[C@@H](CC(N)=O)C(=O)N[C@H]1CSC(=O)[C@H](CC(C)C)NC(=O)[C@H](CC(C)C)NC(=O)[C@H](Cc2ccccc2)NC(=O)[C@H](CC(=O)O)NC1=O [G-AIP-III, G-I-N-(C-D-F-L-L)] (H-GINCDFLL; thioester 4-C) |  |  |  |  | largely inactive | 29.9 | 13.7 | > 200 | 104 |  |
| CC[C@H](C)[C@H](N)C(=O)N[C@@H](CC(N)=O)C(=O)N[C@H]1CSC(=O)[C@H](C)NC(=O)[C@H](CC(C)C)NC(=O)[C@H](Cc2ccccc2)NC(=O)[C@H](CC(=O)O)NC1=O [AIP-III L7A, I-N-(C-D-F-L-A)] (H-INCDFLA; thioester 3-C) | > 200 | > 200 | > 200 | > 200 | largely inactive |  |  |  |  |  |
| CC[C@H](C)[C@H](N)C(=O)N[C@@H](CC(N)=O)C(=O)N[C@H]1CSC(=O)[C@H](CC(C)C)NC(=O)[C@H](CC(C)C)NC(=O)[C@H](C)NC(=O)[C@H](CC(=O)O)NC1=O [AIP-III F5A, I-N-(C-D-A-L-L)] (H-INCDALL; thioester 3-C) | > 200 | > 200 | > 200 | 118 |  |  |  |  |  | IC50 (AgrC-II [4]): 44.7 nM |
| CC(C)C[C@@H]1NC(=O)[C@H](Cc2ccccc2)NC(=O)[C@H](CC(=O)O)NC(=O)[C@@H](NC(=O)[C@H](CC(N)=O)NC(=O)[C@H](C)N)CSC(=O)[C@H](CC(C)C)NC1=O [AIP-III I1A, A-N-(C-D-F-L-L)] (H-ANCDFLL; thioester 3-C) | 17.9 | 4.26 | 194 | 7.85 |  |  |  |  |  | IC50 (AgrC-I [5]): 4.61 nM; IC50 (AgrC-II [4]): 1.29 nM; IC50 (AgrC-IV [6]): 12.5 nM |
| CC[C@H](C)[C@H](N)C(=O)N[C@@H](C)C(=O)N[C@H]1CSC(=O)[C@H](CC(C)C)NC(=O)[C@H](CC(C)C)NC(=O)[C@H](Cc2ccccc2)NC(=O)[C@H](CC(=O)O)NC1=O [AIP-III N2A, I-A-(C-D-F-L-L)] (H-IACDFLL; thioester 3-C) | 3.6 | 0.732 |  | 3.53 | weak agonist |  |  |  |  | IC50 (AgrC-I [5]): 1.02 nM; IC50 (AgrC-II [4]): 0.137 nM; IC50 (AgrC-IV [6]): 2.64 nM |
| CC(=O)N[C@H]1CSC(=O)[C@H](CC(C)C)NC(=O)[C@H](CC(C)C)NC(=O)[C@H](Cc2ccccc2)NC(=O)[C@H](CC(=O)O)NC1=O [tAIP-III, Ac-(C-D-F-L-L)] (Ac-CDFLL; thioester 1-C) |  |  |  |  | largely inactive | 26.7 | 1.53 | > 200 | 25.5 |  |
| CC[C@H](C)[C@H](N)C(=O)N[C@@H](CC(N)=O)C(=O)N[C@H]1CSC(=O)[C@H](CC(C)C)NC(=O)CN(CC(C)C)C(=O)[C@H](Cc2ccccc2)NC(=O)[C@H](CC(=O)O)NC1=O [AIP-III nL6, I-N-(C-D-F-nL-L)] (H-INCDF[Nleu]L; thioester 3-C) |  |  | > 1000 | > 1000 |  |  |  |  |  |  |
